Laboratory results taken from ChEMBL document CHEMBL3430850, “MMV Malaria Box gametocyte standard membrane feeding assay screening”.

Experiment: MMV: Gametocytes from P. falciparum reporter strain NF54-deltaPf47-5'hsp70-GFP::Luc were exposed to serial dilutions of compounds for 24 hours. Subsequently, compounds were washed out and gametocytes were fed to Anopheles stephensi mosquitoes. Three compounds were tested at six dilutions in one experimental run. All conditions were tested in duplicate in two different experimental runs. Each run included duplicate feeders for vehicle (0.1% DMSO) and positive (10 uM dihydroartemisinin) controls. Eight days post-feeding, oocyst densities were determined by assessment of luminescence signals in homogenized mosquitoes. Up to 24 mosquitoes were analysed per feeder. Luminescence data from individual mosquitoes were normalized against the average signals from the vehicle control feeds that were included in each run. IC50 values were determined by fitting a four-parameter logistic regression model using maximum likelihood optimization to find the best fit.
Format: functional, Plasmodium falciparum
Details: not given; call rule not given here

Compound | IC50
CC1CN(C(=O)c2sc3ccccc3c2Cl)CC(C)O1 (stereo not drawn) | Not active
OC(CNC1CCCCC1)Cn1c2ccc(I)cc2c2cc(I)ccc21 (stereo not drawn) | Not active

Same assay, conditions: read-out: IC50

Compound | IC50
CN(C)CCCNc1c2ccccc2nc2ccccc12 | 1170 nM
COc1ccc(C2c3ccc4ccccc4c3Oc3ncn(CCCN(C)C)c(=N)c32)cc1 (stereo not drawn) | 58.9 nM
COc1ccc(-c2c(C)nn3c(N)c(C#N)cnc23)cc1OC | 3630 nM
CCOC(=O)c1cnc2ccc(CC)cc2c1O | 110 nM
Cc1ccc(-c2cc3c(nn2)-c2ccccc2C3=O)cc1 | 1260 nM
CCOC(=O)C1=C(C)N=c2sc(=Cc3cc(Cl)ccc3O)c(=O)n2C1c1ccc(OC)cc1 (stereo not drawn) | 3240 nM
COC(=O)c1ccc(C2C3=C(O)CC(c4ccc(F)cc4)CC3=Nc3ccccc3N2C(=O)c2ccccc2)cc1 (stereo not drawn) | 8510 nM
Cc1sc2ncnc(Sc3nc4ccccc4[nH]3)c2c1C | 1290 nM
CCN(CC)CCn1c(=N)n(CC(O)c2ccc(Cl)c(Cl)c2)c2ccccc21 (stereo not drawn) | 1660 nM
O=C(NC1CCN(Cc2ccccc2)CC1)c1cc(C(=O)NC2CCN(Cc3ccccc3)CC2)cc(C(=O)NC2CCN(Cc3ccccc3)CC2)c1 | 1170 nM
Clc1cc(Br)ccc1-c1ccc(CNCC2CCNCC2)o1 | 74.1 nM
CCOC(=O)c1cn(CC)c2cc(N3CCCCC3)c(F)cc2c1=O | 95.5 nM
CC(C)(C)c1ccc2c(c1)CN(Cc1ccc(Cl)cc1)CO2 | 589 nM
CC1=C(CC(=O)c2cccc([N+](=O)[O-])c2)C(=O)c2ccccc2C1=O | 1410 nM
OC1CCCCC1C1(NC(=S)Nc2ccccc2)CCCCC1 (stereo not drawn) | 1740 nM
CN(C)c1ccc(C(O)(c2ccc(N(C)C)cc2)c2ccc(N(C)C)cc2)cc1 [METHYLROSANILINE] | 38.9 nM
